Measured values published in patent US7122294B2, “Photoacid generators with perfluorinated multifunctional anions” (3M Innovative Properties Company, priority 2003, dated 2006).
Values joined by “and” are separate entries in the source; they are usually repeats but may differ in a detail not shown here. Equal entries are not always repeated.

Tests used:
[1] = Bio-elimination screening after a single oral dose; assay type: in vivo, male Sprague Dawley rats; conditions: for Total F concentration in Liver / Total F concentration in Serum: 30 mg/kg single oral dose; for parent compound recovered in the urine: within the first 28 hours post dose, 19F NMR; for bioelimination compared to PFOS: screenings in rats
Protocol: The objective of this study was to evaluate the potential for oral absorption, distribution, and serum and liver elimination rates of KO3SCF2CF2CF2CF2SO3K and LiO3SCF2CF2CF2COOLi in male Sprague Dawley rats after a single oral dose. Quantitation of fluorinated salt levels and potential metabolites in serum and liver were performed by total organic fluorine analysis.
21 male Sprague Dawley rats (Harlan), 6–8 weeks in age and weighing approximately 150–250 g were treated with a single dose of the test compound, prepared in propylene glycol (suspension of 6 mg/ml propylene glycol), via oral gavage at either 0 mg/kg (control) or 30 mg/kg body weight (Group 1) (3 animals per dose group per designated treatment period). […] Liver and serum samples were collected for total fluorine analysis on each of those days. All the specimens collected at necropsy were temporarily stored in at −70° C. A complete protocol for this study is available (Strategic Toxicology Lab Protocol Number ST-88). Urine samples were collected and analyzed by ^19F NMR on day one and day four (0–4, 4–24 and 76–100 hrs, respectively) post dose in order to determine the concentration of the respective perfluorinated anion.

[2] = Photo-DSC/DSC cationic curing activity of PAGs in Epon 828; parameters: PDSC Peak Max / PDSC Induction Time: unit not given here; conditions: for PDSC Energy: Epon 828, 1.0% PAG, 0.1% ITX, light exposure 5 min at 30° C.; for DSC after PDSC Onset Temp / DSC after PDSC Energy / DSC after PDSC Peak Max / PDSC Induction Time / DSC Only (dark) Energy / DSC Only (dark) Onset Temp / DSC Only (dark) Peak Max / PDSC Peak Max: Epon 828; for DSC after PDSC Onset Temp: DSC scan 10° C./minute after light exposure; for DSC after PDSC Energy / DSC after PDSC Peak Max: DSC scan after light exposure; for PDSC Induction Time: light exposure at 30° C.; for DSC Only (dark) Energy / DSC Only (dark) Onset Temp / DSC Only (dark) Peak Max: no prior light exposure; for PDSC Peak Max: time to peak maximum of curing exotherm at 30° C.
Protocol: (§1) Photo-DSC/DSC: Standard (hermetic) liquid sample pans were used. Sample size was kept in the 6 to 8 mg range. Samples were tested using a Dupont Photo-DSC/DSC instrument (available from DuPont, Wilmington, Del.). The light source was a 200 W Hg lamp that delivered about 60 mw/cm at the sample. Samples were exposed in open pans for 5 minutes to the light source at 30° C. then removed from the instrument, sealed and a standard DSC scan run at 10° C./minute to 300° C. A separate DSC experiment was carried out using a sealed sample pan and no prior light exposure to determine the dark reactivity of these PAGs. Comparison of the DSC traces before and after light exposure enables differentiation between the thermal reactivity of the PAGs (in the dark) and their photochemical activity.
(§2) This example describes photo-DSC/DSC experiments designed to quantitatively compare the relative cationic curing reactivities of PAGs of the present invention containing difunctional fluoroorganic sulfonate anions with related PAGs having identical cations and monofunctional perfluoroalkanesulfonate anions. Relative reactivities were measured in three different cationically polymerizable monomer systems, including two different types of epoxies and one vinyl ether.
(§3) The photo-DSC experiment provides information on the photo-cure speed at 30° C. as measured by the induction time (onset) and time to reach the peak maximum in the curing exotherm. […] The energy released under the curing exotherm is a measure of the extent of cure; larger values mean more cure has taken place during the light exposure. […] Comparison with the DSC traces recorded with no prior light exposure provides a measure of the increase in activity after photoactivation of the PAG.
(§4) General: Stock solutions of three cationically curable monomers were prepared as shown in Table 3 with 0.1% (w/w) isopropylthioxanthone (ITX). Epon 828 is a difunctional glycidyl ether epoxy from Shell, ERL-4221 is a difunctional cycloaliphatic epoxy from Union Carbide and VEX 5015 is a trifunctional vinyl ether from Allied Signal. Because of the low sensitivity of these compositions to room lights, all sample preparation was done with the lab lights on but the hood lights off. All PAGs were formulated at 1.0% by weight in the stock monomer/sensitizer solutions. Into a small aluminum pan was weighed 0.02 g of PAG and 0.04 g of propylene carbonate used to promote dissolution of the PAG in the monomer. The pan was heated briefly on a hot plate set at 100° C. to dissolve the PAG, then 2.0 g the stock monomer/sensitizer solution was added. The solution was briefly heated again on a hot plate set at 100° C. to allow complete mixing of the components, then the solution was allowed to cool to room temperature before using.

[3] = Photo-DSC/DSC cationic curing activity of PAGs in ERL-4221; parameters: PDSC Peak Max / PDSC Induction Time: unit not given here; conditions: for PDSC Energy: ERL-4221, 1.0% PAG, 0.1% ITX, light exposure 5 min at 30° C.; for DSC after PDSC Onset Temp / DSC after PDSC Energy / DSC after PDSC Peak Max / PDSC Induction Time / DSC Only (dark) Energy / DSC Only (dark) Onset Temp / DSC Only (dark) Peak Max / PDSC Peak Max: ERL-4221; for DSC after PDSC Onset Temp: DSC scan 10° C./minute after light exposure; for DSC after PDSC Energy / DSC after PDSC Peak Max: DSC scan after light exposure; for PDSC Induction Time: light exposure at 30° C.; for DSC Only (dark) Energy / DSC Only (dark) Onset Temp / DSC Only (dark) Peak Max: no prior light exposure; for PDSC Peak Max: time to peak maximum of curing exotherm at 30° C.
Protocol: as §1, §2, §3, §4

[4] = Photo-DSC/DSC cationic curing activity of PAGs in VEX 5015; parameters: PDSC Peak Max / PDSC Induction Time: unit not given here; conditions: for PDSC Energy: VEX 5015, 1.0% PAG, 0.1% ITX, light exposure 5 min at 30° C.; for DSC after PDSC Energy / DSC after PDSC Onset Temp / DSC after PDSC Peak Max / PDSC Induction Time / DSC Only (dark) Onset Temp / PDSC Peak Max: VEX 5015; for DSC after PDSC Energy / DSC after PDSC Onset Temp / DSC after PDSC Peak Max: DSC scan after light exposure; for DSC after PDSC Onset Temp / DSC after PDSC Peak Max / DSC Only (dark) Onset Temp: two values = two exotherms; for PDSC Induction Time: light exposure at 30° C.; for DSC Only (dark) Onset Temp: no prior light exposure; for PDSC Peak Max: time to peak maximum of curing exotherm at 30° C.
Protocol: as §1, §2, §3, §4

[5] = Thermal gravimetric analysis (TGA), onset of thermal decomposition; assay type: physicochemical; conditions: under nitrogen, ramp 10° C. per minute
Protocol: TGA was performed on a Perkin-Elmer Instruments TGA Model 7 in an open platinum pan. The onset of thermal decomposition, Td, was taken as the thermal decomposition temperature of the photoacid generators and was determined under nitrogen atmosphere using a temperature ramp of 10° C. per minute. The onset temperature was determined by the intersection of tangents to the low temperature portion of the baseline and the first inflection point in the wt % vs. temperature curve.

| Structure (SMILES) | Total F concentration in Liver ([1]; rat, Day 0) | Total F concentration in Serum ([1]; rat, Day 0) | Total F concentration in Liver ([1]; rat, Day 1) | Total F concentration in Serum ([1]; rat, Day 1) | Total F concentration in Liver ([1]; rat, Day 4) | Total F concentration in Serum ([1]; rat, Day 4) | Total F concentration in Liver ([1]; rat, Day 8) | Total F concentration in Serum ([1]; rat, Day 8) | Total F concentration in Liver ([1]; rat, Day 14) | Total F concentration in Serum ([1]; rat, Day 14) | parent compound recovered in the urine ([1]; rat, single oral dose) | bioelimination compared to PFOS [1] | PDSC Energy [2] | DSC after PDSC Onset Temp [2] | DSC after PDSC Energy [2] | DSC after PDSC Peak Max [2] | PDSC Induction Time [2] | DSC Only (dark) Energy [2] | DSC Only (dark) Onset Temp [2] | DSC Only (dark) Peak Max [2] | other results |
| --- | --- | --- | --- | --- | --- | --- | --- | --- | --- | --- | --- | --- | --- | --- | --- | --- | --- | --- | --- | --- | --- |
| O=S(=O)([O-])C(F)(F)C(F)(F)C(F)(F)C(F)(F)S(=O)(=O)[O-].[K+].[K+] [KO3SCF2CF2CF2CF2SO3K, KO3S(CF2)4SO3K] | ND (ND = not detectable within limits of test (0.3 ppm)) | (ND) (ND = not detectable within limits of test (0.3 ppm)) | 0.6 ppm | (ND) (ND = not detectable within limits of test (0.3 ppm)) | ND (ND = not detectable within limits of test (0.3 ppm)) | (ND) (ND = not detectable within limits of test (0.3 ppm)) | ND (ND = not detectable within limits of test (0.3 ppm)) | (ND) (ND = not detectable within limits of test (0.3 ppm)) | ND (ND = not detectable within limits of test (0.3 ppm)) | (ND) (ND = not detectable within limits of test (0.3 ppm)) | 11% | more readily bioeliminate compared to PFOS |  |  |  |  |  |  |  |  |  |
| CC(C)(C)c1ccc([I+]c2ccc(C(C)(C)C)cc2)cc1.O=S(=O)([O-])C(F)(F)C(F)(F)C(F)(F)C(F)(F)F [DTBPI-ONf, reference compound] |  |  |  |  |  |  |  |  |  |  |  |  | 10 J/g | 100 C.° | 558 J/g | 190 °C | 12.5 | 606 J/g | 175 C.° | 232 °C | PDSC Peak Max [2]: 21.2; PDSC Energy [3]: 5 J/g; DSC after PDSC Onset Temp [3]: 50 C.°; DSC after PDSC Energy [3]: 577 J/g; DSC after PDSC Peak Max [3]: 148 °C; PDSC Induction Time [3]: 15.7; DSC Only (dark) Energy [3]: 566 J/g; DSC Only (dark) Onset Temp [3]: 150 C.°; DSC Only (dark) Peak Max [3]: 192; PDSC Peak Max [3]: 24; PDSC Energy [4]: 242 J/g; DSC after PDSC Energy [4]: 31 J/g; DSC after PDSC Onset Temp [4]: 125 C.°; DSC after PDSC Peak Max [4]: 159 °C; PDSC Induction Time [4]: 0.9; DSC Only (dark) Onset Temp [4]: 100, C.° and 155 C.°; PDSC Peak Max [4]: 2.8 |
| CC(C)(C)c1ccc([I+]c2ccc(C(C)(C)C)cc2)cc1.O=S(=O)([O-])C(F)(F)C(F)(F)C(F)(F)C(F)(F)C(F)(F)C(F)(F)C(F)(F)C(F)(F)F [DTBPI-PFOS, reference compound] |  |  |  |  |  |  |  |  |  |  |  |  | 4 J/g | 100 C.° | 566 J/g | 197 °C | 18.9 | 608 J/g | 175 C.° | 238 °C | PDSC Peak Max [2]: 28.4; PDSC Energy [3]: 4 J/g; DSC after PDSC Onset Temp [3]: 65 C.°; DSC after PDSC Energy [3]: 560 J/g; DSC after PDSC Peak Max [3]: 155 °C; PDSC Induction Time [3]: 14.8; DSC Only (dark) Energy [3]: 583 J/g; DSC Only (dark) Onset Temp [3]: 150 C.°; DSC Only (dark) Peak Max [3]: 190; PDSC Peak Max [3]: 22.4; PDSC Energy [4]: 230 J/g; DSC after PDSC Energy [4]: 24 J/g; DSC after PDSC Onset Temp [4]: 140 C.°; DSC after PDSC Peak Max [4]: 163 °C; PDSC Induction Time [4]: 1.1; DSC Only (dark) Onset Temp [4]: 100, C.° and 160 C.°; PDSC Peak Max [4]: 3.2 |
| O=S(=O)([O-])C(F)(F)C(F)(F)N(C(F)(F)F)C(F)(F)C(F)(F)S(=O)(=O)[O-].c1ccc([S+](c2ccccc2)c2ccccc2)cc1.c1ccc([S+](c2ccccc2)c2ccccc2)cc1 [PAG-3, [(C6H5)3S^+]2CF3N(CF2CF2SO3^−)2] |  |  |  |  |  |  |  |  |  |  |  |  |  |  |  |  |  |  |  |  | onset of thermal decomposition (TGA) [5]: 411 °C |
| O=C(O)C(F)(F)C(F)(F)C(F)(F)S(=O)(=O)O [LiO3SCF2CF2CF2CO2Li, LiO3S(CF2)3CO2Li] | 0.5 ppm | (ND) (ND = not detectable within limits of test (0.3 ppm)) | ND (ND = not detectable within limits of test (0.3 ppm)) | (ND) (ND = not detectable within limits of test (0.3 ppm)) | ND (ND = not detectable within limits of test (0.3 ppm)) | (ND) (ND = not detectable within limits of test (0.3 ppm)) | ND (ND = not detectable within limits of test (0.3 ppm)) | (ND) (ND = not detectable within limits of test (0.3 ppm)) | ND (ND = not detectable within limits of test (0.3 ppm)) | (ND) (ND = not detectable within limits of test (0.3 ppm)) | greater than 96% | more readily bioeliminate compared to PFOS |  |  |  |  |  |  |  |  | estimated half life of elimination via the urinary route ([1]; rat, single oral dose): less than 28 hours |
